Source: patent publication US20230263822A1, “MODULATION OF FACTOR 11 EXPRESSION” (Ionis Pharmaceuticals, Inc., priority 2008, published 2023)
Strand notation (5' to 3'): a small letter for the sugar, then the base; units joined by * are phosphorothioate-linked, units joined directly phosphodiester-linked; [ ] holds rarer units or linkages, { } end groups; capitals alone tell only the bases. e = 2'-O-(2-methoxyethyl) (MOE); [5mC] = 5-methylcytosine; d = 2'-deoxy (DNA)

Key:
[1] = system: IL-1β, IL-6, IFN-γ, TNF-α, IL-8, MIP-1α, MCP-1, MIP-1β, RANTES; experiment: Cytokine and chemokine assays in cynomolgus monkeys (Example 46); assay type: in vivo
Experimental: (§1) Groups, each consisting of two male and two female monkeys, were injected subcutaneously with 25 mg/kg of ISIS 416850, ISIS 449709, ISIS 445522, ISIS 449710, ISIS 449707, ISIS 449711, ISIS 449708, 416858, and ISIS 445531. Antisense oligonucleotide was administered to the monkeys at 25 mg/kg three times per week for week 1 and 25 mg/kg twice per week for weeks 2 to 8. A control group, consisting of two male and two female monkeys was injected subcutaneously with PBS according to the same dosing regimen. Body weights were taken 14 days and 7 days before the start of treatment and were then measured weekly throughout the treatment period. Blood samples were collected 14 days and 5 days before the start of treatment and subsequently several times during the dosing regimen for PT and aPTT measurements, and measurement of various hematologic factors. On day 55, the monkeys were euthanized by exsanguination while under deep anesthesia, and organs harvested for further analysis.
Blood samples obtained from all monkey groups were sent to Pierce Biotechnology (Woburn, Mass.) for measurements of chemokine and cytokine levels. Levels of IL-1β, IL-6, IFN-γ, and TNF-α were measured using the respective primate antibodies and levels of IL-8, MIP-1α, MCP-1, MIP-1β and RANTES were measured using the respective cross-reacting human antibodies. Measurements were taken 14 days before the start of treatment and on day 55, when the monkeys were euthanized.

[2] = Hematology assays in cynomolgus monkeys (Example 46); assay type: in vivo
Experimental: as §1

[3] = day-14 (before start of treatment)

Substance: ISIS 416858: MOE gapmer, nucleobases 1275 to 1318 of SEQ ID NO: 1 (Table 8) (antisense ACGGCATTGGTGCACAGTTT; MOE gapmer, wing and gap sizes not given here)
- IFN-γ level ([1]; day 55): 9 pg/mL
- IL-1ß level ([1]; day 55): 28 pg/mL
- IL-6 level ([1]; day 55): 1 pg/mL
- IL-8 level ([1]; day 55): 167 pg/mL
- MCP-1 level ([1]; day 55): 512 pg/mL
- MIP-1ß level ([1]; day 55): 47 pg/mL
- MIP-1α level ([1]; day 55): 11 pg/mL
- RANTES level ([1]; day 55): 5925 pg/mL
- TNF-α level ([1]; day 55): 15 pg/mL
- IFN-γ level [1, 3]: 32 pg/mL
- IL-1ß level [1, 3]: 103 pg/mL
- IL-6 level [1, 3]: 0 pg/mL
- IL-8 level [1, 3]: 224 pg/mL
- MCP-1 level [1, 3]: 328 pg/mL
- MIP-1ß level [1, 3]: 37 pg/mL
- MIP-1α level [1, 3]: 11 pg/mL
- RANTES level [1, 3]: 6521 pg/mL
- TNF-α level [1, 3]: 4 pg/mL
- HCT ([2]; Day 17): 43%
- MCH ([2]; Day 17): 23.1 pg
- MCHC ([2]; Day 17): 29.9 g/dL
- MCV ([2]; Day 17): 78 fL
- RBC count ([2]; Day 17): 5.6e+06 µL⁻¹
- WBC count ([2]; Day 17): 10000 µL⁻¹
- hemoglobin content ([2]; Day 17): 13.0 g/dL
- monocytes ([2]; Day 17): 4.0%
- neutrophils ([2]; Day 17): 54%
- platelet count ([2]; Day 17): 358 ×100/μL
- HCT ([2]; Day 31): 43%
- MCH ([2]; Day 31): 23.0 pg
- MCHC ([2]; Day 31): 31.0 g/dL
- MCV ([2]; Day 31): 76 fL
- RBC count ([2]; Day 31): 5.6e+06 µL⁻¹
- WBC count ([2]; Day 31): 9000 µL⁻¹
- hemoglobin content ([2]; Day 31): 12.8 g/dL
- monocytes ([2]; Day 31): 4.7%
- neutrophils ([2]; Day 31): 54%
- platelet count ([2]; Day 31): 289 ×100/μL
- HCT ([2]; Day 45): 41%
- MCH ([2]; Day 45): 22.2 pg
- MCHC ([2]; Day 45): 30.3 g/dL
- MCV ([2]; Day 45): 75 fL
- RBC count ([2]; Day 45): 5.5e+06 µL⁻¹
- WBC count ([2]; Day 45): 8000 µL⁻¹
- hemoglobin content ([2]; Day 45): 12.3 g/dL
- monocytes ([2]; Day 45): 4.6%
- neutrophils ([2]; Day 45): 61%
- platelet count ([2]; Day 45): 287 ×100/μL
- HCT ([2]; Day 55): 39%
- MCH ([2]; Day 55): 22.8 pg
- MCHC ([2]; Day 55): 30.4 g/dL
- MCV ([2]; Day 55): 75 fL
- RBC count ([2]; Day 55): 5.3e+06 µL⁻¹
- WBC count ([2]; Day 55): 9000 µL⁻¹
- hemoglobin content ([2]; Day 55): 12.0 g/dL
- monocytes ([2]; Day 55): 4.6%
- neutrophils ([2]; Day 55): 73%
- platelet count ([2]; Day 55): 257 ×100/μL
- HCT ([2]; Day-5): 44%
- MCH ([2]; Day-5): 23.5 pg
- MCHC ([2]; Day-5): 29.8 g/dL
- MCV ([2]; Day-5): 79 fL
- RBC count ([2]; Day-5): 5.5e+06 µL⁻¹
- WBC count ([2]; Day-5): 11000 µL⁻¹
- hemoglobin content ([2]; Day-5): 13.0 g/dL
- monocytes ([2]; Day-5): 2.7%
- neutrophils ([2]; Day-5): 84%
- platelet count ([2]; Day-5): 433 ×100/μL
- HCT ([2]; Day-14): 41%
- MCH ([2]; Day-14): 23.2 pg
- MCHC ([2]; Day-14): 31.1 g/dL
- MCV ([2]; Day-14): 75 fL
- RBC count ([2]; Day-14): 5.5e+06 µL⁻¹
- WBC count ([2]; Day-14): 10000 µL⁻¹
- hemoglobin content ([2]; Day-14): 12.8 g/dL
- monocytes ([2]; Day-14): 2.0%
- neutrophils ([2]; Day-14): 65%
- platelet count ([2]; Day-14): 369 ×100/μL

Substance: ISIS 449710: 3-8-3, 4-8-4, 2-10-2, 3-10-3 or 4-10-4 MOE microwalk gapmer (Table 46) (antisense e[5mC]*eA*e[5mC]*dA*dG*dT*dT*dT*d[5mC]*dT*dG*dG*d[5mC]*eA*eG*eG)
- IFN-γ level ([1]; day 55): 176 pg/mL
- IL-1ß level ([1]; day 55): 286 pg/mL
- IL-6 level ([1]; day 55): 2 pg/mL
- IL-8 level ([1]; day 55): 348 pg/mL
- MCP-1 level ([1]; day 55): 474 pg/mL
- MIP-1ß level ([1]; day 55): 53 pg/mL
- MIP-1α level ([1]; day 55): 27 pg/mL
- RANTES level ([1]; day 55): 22656 pg/mL
- TNF-α level ([1]; day 55): 26 pg/mL
- IFN-γ level [1, 3]: 1115 pg/mL
- IL-1ß level [1, 3]: 271 pg/mL
- IL-6 level [1, 3]: 7 pg/mL
- IL-8 level [1, 3]: 29 pg/mL
- MCP-1 level [1, 3]: 409 pg/mL
- MIP-1ß level [1, 3]: 18 pg/mL
- MIP-1α level [1, 3]: 20 pg/mL
- RANTES level [1, 3]: 1215 pg/mL
- TNF-α level [1, 3]: 72 pg/mL
- HCT ([2]; Day 17): 43%
- MCH ([2]; Day 17): 23.1 pg
- MCHC ([2]; Day 17): 30.7 g/dL
- MCV ([2]; Day 17): 75 fL
- RBC count ([2]; Day 17): 5.8e+06 µL⁻¹
- WBC count ([2]; Day 17): 12000 µL⁻¹
- hemoglobin content ([2]; Day 17): 13.4 g/dL
- monocytes ([2]; Day 17): 2.5%
- neutrophils ([2]; Day 17): 80%
- platelet count ([2]; Day 17): 382 ×100/μL
- HCT ([2]; Day 31): 44%
- MCH ([2]; Day 31): 22.6 pg
- MCHC ([2]; Day 31): 30.1 g/dL
- MCV ([2]; Day 31): 75 fL
- RBC count ([2]; Day 31): 5.8e+06 µL⁻¹
- WBC count ([2]; Day 31): 12000 µL⁻¹
- hemoglobin content ([2]; Day 31): 13.1 g/dL
- monocytes ([2]; Day 31): 2.4%
- neutrophils ([2]; Day 31): 94%
- platelet count ([2]; Day 31): 422 ×100/μL
- HCT ([2]; Day 45): 43%
- MCH ([2]; Day 45): 21.8 pg
- MCHC ([2]; Day 45): 30.4 g/dL
- MCV ([2]; Day 45): 75 fL
- RBC count ([2]; Day 45): 5.7e+06 µL⁻¹
- WBC count ([2]; Day 45): 11000 µL⁻¹
- hemoglobin content ([2]; Day 45): 13.0 g/dL
- monocytes ([2]; Day 45): 3.4%
- neutrophils ([2]; Day 45): 97%
- platelet count ([2]; Day 45): 313 ×100/μL
- HCT ([2]; Day 55): 41%
- MCH ([2]; Day 55): 22.7 pg
- MCHC ([2]; Day 55): 31.1 g/dL
- MCV ([2]; Day 55): 73 fL
- RBC count ([2]; Day 55): 5.6e+06 µL⁻¹
- WBC count ([2]; Day 55): 15000 µL⁻¹
- hemoglobin content ([2]; Day 55): 12.7 g/dL
- monocytes ([2]; Day 55): 1.6%
- neutrophils ([2]; Day 55): 132%
- platelet count ([2]; Day 55): 360 ×100/μL
- HCT ([2]; Day-5): 44%
- MCH ([2]; Day-5): 22.8 pg
- MCHC ([2]; Day-5): 29.7 g/dL
- MCV ([2]; Day-5): 77 fL
- RBC count ([2]; Day-5): 5.8e+06 µL⁻¹
- WBC count ([2]; Day-5): 11000 µL⁻¹
- hemoglobin content ([2]; Day-5): 13.2 g/dL
- monocytes ([2]; Day-5): 2.0%
- neutrophils ([2]; Day-5): 86%
- platelet count ([2]; Day-5): 463 ×100/μL
- HCT ([2]; Day-14): 41%
- MCH ([2]; Day-14): 23.0 pg
- MCHC ([2]; Day-14): 31.2 g/dL
- MCV ([2]; Day-14): 75 fL
- RBC count ([2]; Day-14): 5.6e+06 µL⁻¹
- WBC count ([2]; Day-14): 11000 µL⁻¹
- hemoglobin content ([2]; Day-14): 13.0 g/dL
- monocytes ([2]; Day-14): 1.3%
- neutrophils ([2]; Day-14): 93%
- platelet count ([2]; Day-14): 411 ×100/μL
